Experimental data taken from patent US20120308562A1, “METHODS OF TREATING MESOTHELIOMA WITH A PI3K INHIBITOR COMPOUND” (priority 2011, published 2012).
Read-outs that look alike come from different tables or passages of the source.

What was measured:
[1] = test system: MCF7-neo/HER2 cell line; assay: MCF7-neo/HER2 cell line IC50; format: cell-based
[2] = stability in human microsomes; format: in vitro ADME
[3] = stability in human hepatocytes; format: in vitro ADME
[4] = biological target: hERG (Homo sapiens, UniProt Q12809); assay: hERG activity
[5] = clearance in rodents; conditions: in vivo
[6] = clearance in dogs; conditions: dog, in vivo
[7] = pharmacokinetics after a single oral dose (species not given); format: in vivo; conditions: species not stated
[8] = test system: MDA-MB-361.1 breast cancer xenograft; assay: MDA-MB-361.1 breast cancer xenograft model; format: in vivo; conditions: QD
[9] = test system: MDA-MB-361.1 xenografts; assay: nonclinical PK/PD model of tumor growth inhibition with predicted human PK; conditions: predicted human PK and nonclinical PD data, preliminary
Excerpt: A nonclinical PK/PD model of tumor growth inhibition was developed using the indirect response model (Jusko W J. “Pharmacodynamics of chemotherapeutic effects: dose-time-response relationships for phase-nonspecific agents”, J Pharm Sci (1971) 60:892-5) to fit exposure and growth inhibition data based on four sets of experiments examining varying schedules and doses in the MDA-MB-361.1 xenografts. The PK/PD model was then used to predict minimal exposure needed to achieve 50% tumor growth inhibition, using the predicted human PK data and the nonclinical PD data. […] On the basis of MLP allometric scaling, a daily dose of approximately 18 mg may achieve this exposure. Dose escalation will continue until the MTD, even if 1.7 μM·hr exposure is surpassed and well tolerated, since it is well established that tumor xenograft models are not absolutely predictive of clinical response (Sausville and Burger 2006).

[10] = Phase I clinical pharmacokinetics (plasma, LC-MS/MS); format: in vivo, human; conditions: for AUC(0-t): oral, individual patient, read-out: AUC0-24 h
Method: For Cycle 1 of the Phase I study, a single dose of GDC-0980 is administered to patients on Day 1 in a clinical setting that can accommodate frequent blood draws over a period of up to 48 hours after the dose is administered. Daily dosing will begin on Day 8 and continue for 21 days (Days 8-28), followed by a 7-day off-drug observation period (Days 29-35). Subsequent cycles will be 28 days in length (21 days of daily dosing followed by a 7-day observation period). Additional cohorts may be added to examine the tolerability of a 28-day dosing schedule with no observation period after the MTD is […] defined for the 21-day dosing schedule. GDC-0980 should be taken on an empty stomach (fasting) in the morning, unless otherwise instructed. For all patients Days 1 and 15 (PK sampling days), patients should be fasted overnight (at least 8-10 hours) prior to their dose on those days. On other days, patients should avoid consuming anything but water for 1 hour before and 2 hours after GDC-0980 administration. Each dose should be taken with a minimum of 3-4 ounces of water. […] PK: Plasma GDC-0980 concentrations were assayed by LC-MS/MS (Tandem Labs, Inc., Salt Lake City, Utah) with LLOQ 0.5 ng/mL and analyzed using noncompartmental analysis.

[11] = test system: pAKT (S473) in PRP; assay: pAKT in platelet-rich plasma (MSD assay), Phase I; format: in vivo, human
Method: pAKT in PRP: Total AKT and pAKT (S473) in PRP were measured by Meso Scale Discovery (MSD) assay, and the percent change in pAKT relative to baseline was calculated.

[12] = in vivo
Method: (§1) Patients with a history of Type 1 or 2 diabetes mellitus requiring regular medication were excluded. GDC-0980 was administered on Day 1, followed by 1 week of washout to evaluate single-dose PK and PD markers. GDC-0980 was then dosed QD for either 21 days or 28 days every 28-day cycle. Tumor assessments were performed after Cycles 1, 2, and then every 2 cycles using RECIST guidelines. Optional FDG-PET was obtained between Days 22-28 and Days 50-57.
(§2) Fasted blood glucose & insulin were monitored at clinical visits (pre-dose & 2 hrs post-dose). Dosing with GDC-0980 was allowed with =G2 blood glucose with appropriate monitoring, i.e., additional monitoring in clinic and fingerstick glucose testing at home.
(§3) Safety Analyses: All patients who receive any amount of GDC-0980 therapy will be included in the safety analyses. Safety will be assessed through summaries of adverse events, deaths, and changes in laboratory test results. All adverse events for all patients will be collected for the safety dataset. Verbatim descriptions of adverse events will be mapped to thesaurus terms. All recorded adverse event data will be listed by study site, patient, and cycle. All adverse events occurring on or after the first treatment will be summarized by mapped term, appropriate thesaurus levels, and NCI CTCAE, v3.0 toxicity grade. All serious adverse events will be listed separately and summarized. In addition, the incidence of symptomatic CHF and/or LVEF <40% will be summarized. Deaths reported during the study treatment period and those reported during follow-up after patient treatment discontinuation will be summarized. Laboratory data will be summarized by grade using the NCI CTCAE, v3.0 toxicity grade. Changes in LVEF over time will be summarized and listed by scheduled measurement time. The occurrence of antibodies to GDC-0980 will be listed.

[13] = biological target: mTOR (Homo sapiens, UniProt P42345); assay: biochemical
[14] = Phase I safety and tolerability
Method: as §1, §2, §3

[15] = test system: mesothelioma; assay: Phase I tumor response by RECIST, mesothelioma patients; conditions: person; for decrease in target lesions by RECIST: 21/28 day schedule
Method: Tumor assessments (CT and/or magnetic resonance imaging [MRI] scans) are performed approximately every 6 weeks irrespective of dose delays, interruptions, or reductions. Bone and brain scans (either CT or MRI) may be performed at baseline and if clinically indicated during the study. Patient management decisions were made based on tumor assessments performed by investigators. The primary study endpoints related to response were determined by an independent radiologic review of patient scans, with assessments based on investigator reporting being secondary. If each non-target lesion cannot be assessed at a follow-up tumor assessment timepoint, patients may still be considered evaluable for timepoint response as long as all target lesions are measured. Patients with non-target lesions that were not assessed at a timepoint were assessed as having a partial response, stable disease, or progressive disease. All lesions, target and non-target, were assessed before a response was considered confirmed. To reduce the frequency of unevaluable non-target lesions, bone lesions visible on baseline CT scan as non-target lesion(s) for follow-up, were compared with bone lesions identified on the baseline bone scan where possible if lesions are not visible on both modalities or as easily and reproducibly assessed.
Tumor assessments were performed after Cycles 1, 2, and then every 2 cycles using RECIST guidelines. Optional FDG-PET was obtained between Days 22-28 and Days 50-57.

[16] = test system: adrenal cortical cancer; assay: Phase I tumor response by RECIST, adrenal cortical cancer patient; conditions: person, 40 mg QD, 28/28 day schedule
Method: (§4) Tumor assessments (CT and/or magnetic resonance imaging [MRI] scans) are performed approximately every 6 weeks irrespective of dose delays, interruptions, or reductions. Bone and brain scans (either CT or MRI) may be performed at baseline and if clinically indicated during the study. Patient management decisions were made based on tumor assessments performed by investigators. The primary study endpoints related to response were determined by an independent radiologic review of patient scans, with assessments based on investigator reporting being secondary. If each non-target lesion cannot be assessed at a follow-up tumor assessment timepoint, patients may still be considered evaluable for timepoint response as long as all target lesions are measured. Patients with non-target lesions that were not assessed at a timepoint were assessed as having a partial response, stable disease, or progressive disease. All lesions, target and non-target, were assessed before a response was considered confirmed. To reduce the frequency of unevaluable non-target lesions, bone lesions visible on baseline CT scan as non-target lesion(s) for follow-up, were compared with bone lesions identified on the baseline bone scan where possible if lesions are not visible on both modalities or as easily and reproducibly assessed. […]

[17] = test system: solid tumors; assay: Phase I best RECIST response and time on study, all enrolled patients; conditions: peritoneal mesothelioma and adrenal cancer patients
Method: as §4

[18] = human, plasma, patients, single oral dose

Sequence of hERG (Q12809 whole entry): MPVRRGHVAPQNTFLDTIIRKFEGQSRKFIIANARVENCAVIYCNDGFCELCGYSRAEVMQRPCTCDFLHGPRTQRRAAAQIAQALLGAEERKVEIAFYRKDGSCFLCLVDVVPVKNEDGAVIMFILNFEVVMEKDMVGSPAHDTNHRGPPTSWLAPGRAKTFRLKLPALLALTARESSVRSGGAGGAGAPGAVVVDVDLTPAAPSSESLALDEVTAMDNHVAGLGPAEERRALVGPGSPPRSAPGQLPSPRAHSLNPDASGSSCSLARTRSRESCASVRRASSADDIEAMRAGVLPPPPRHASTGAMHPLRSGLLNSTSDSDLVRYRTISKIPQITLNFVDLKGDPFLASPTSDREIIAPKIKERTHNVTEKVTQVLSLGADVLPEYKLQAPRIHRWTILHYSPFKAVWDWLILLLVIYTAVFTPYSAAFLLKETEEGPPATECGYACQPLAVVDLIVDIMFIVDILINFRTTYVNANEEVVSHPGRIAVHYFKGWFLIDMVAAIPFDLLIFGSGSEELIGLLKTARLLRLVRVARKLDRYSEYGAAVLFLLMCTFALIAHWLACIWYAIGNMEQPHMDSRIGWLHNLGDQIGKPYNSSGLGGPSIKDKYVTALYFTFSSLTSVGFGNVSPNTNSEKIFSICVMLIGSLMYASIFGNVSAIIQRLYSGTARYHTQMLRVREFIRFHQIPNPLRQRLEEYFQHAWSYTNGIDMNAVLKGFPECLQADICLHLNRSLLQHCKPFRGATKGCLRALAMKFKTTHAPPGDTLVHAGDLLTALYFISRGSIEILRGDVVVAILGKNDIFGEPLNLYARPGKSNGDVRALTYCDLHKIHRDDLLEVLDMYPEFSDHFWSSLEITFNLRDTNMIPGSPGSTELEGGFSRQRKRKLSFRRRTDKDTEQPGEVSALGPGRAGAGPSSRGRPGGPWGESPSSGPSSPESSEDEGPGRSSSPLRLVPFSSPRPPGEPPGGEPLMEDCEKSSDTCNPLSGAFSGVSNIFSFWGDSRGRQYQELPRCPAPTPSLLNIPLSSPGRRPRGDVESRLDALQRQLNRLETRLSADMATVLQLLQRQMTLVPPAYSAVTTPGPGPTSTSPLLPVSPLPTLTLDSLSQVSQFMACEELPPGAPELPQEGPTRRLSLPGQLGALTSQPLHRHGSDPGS

Compound: Cc1c(CN2CCN(C(=O)[C@H](C)O)CC2)sc2c(N3CCOCC3)nc(-c3cnc(N)nc3)nc12 [GDC-0980, (S)-1-(4-((2-(2-aminopyrimidin-5-yl)-7-methyl-4-morpholinothieno[3,2-d]pyrimidin-6-yl)methyl)piperazin-1-yl)-2-hydroxypropan-1-one]
- IC50 [1]: 320 nM
- stability in human microsomes [2]: stable
- stability in human hepatocytes [3]: stable
- IC50 [4]: > 100000 nM
- clearance [5]: 60 mL/min/kg
- clearance [6]: 12 mL/min/kg
- half-life ([7]; in vivo, read-out: terminal half-life): 6 to 18 h
- dose dependence of AUC and Cmax [7]: dose-proportional increases
- minimum dose producing significant growth inhibition [8]: 1.0 mg/kg
- minimal exposure (AUC) needed to achieve 50% tumor growth inhibition [9]: approximately 1.7 μM·hr
- AUC(0-t) ([10]; human, plasma, 8 mg QD, 21/28 day schedule): ~0.4 µM·h
- AUC(0-t) ([10]; human, plasma, 32 mg QD, 21/28 day schedule): ~4.4 µM·h
- AUC(0-t) ([10]; human, plasma, 40 mg QD, 28/28 day schedule): ~4.1 µM·h
- AUC(0-t) ([10]; human, plasma, 50 mg QD, 21/28 day schedule): ~3 µM·h
- Tmax [10, 18]: ~2 h
- half-life [10, 18]: 6 to 18 h
- dose dependence of AUC and Cmax ([10]; patients, single oral dose): dose-proportional increases
- decrease in pAKT in PRP ([11]; doses of 16 mg): 90%
- time for which significant inhibition of pAKT was maintained ([11]; doses of 50 mg): 24 hours
- patients with increased blood glucose ([12]; human): 83.3%
- drug-related AEs that occurred in =10% of patients [12]: fatigue, diarrhea, rash, nausea, decreased appetite, mucositis, hyperglycemia, vomiting, pruritus, GERD (Gastroesophageal reflux disease), and constipation
- number of patients with G3 increased blood glucose [12]: Six
- Ki [13]: 17.3 nM
- dose at which the MTD was exceeded ([14]; QD, 21/28-day schedule): 70 mg
- G5 adverse event considered related to GDC-0980 ([14]; metastatic colorectal cancer patient, 50 mg QD, about 1 week after starting Cycle 2): G5 adverse event of colitis
- time on study before progression of disease ([15]; epitheloid mesothelioma, 8 mg QD, 21/28): about 4.5 months
- decrease in target lesions by RECIST ([15]; epitheloid mesothelioma, PIK3CA R88Q, 8 mg QD, end of Cycle 2): 26%
- decrease in target lesions by RECIST ([15]; epitheloid pleural mesothelioma, 50 mg QD, end of Cycles 1 and 2): 26%
- decrease in target lesions by RECIST ([15]; peritoneal mesothelioma, 32 mg QD, end of Cycle 6): 28%
- decrease in target lesions by RECIST ([16]; after 3 weeks of treatment in Cycle 2): 39%
- decrease in target lesions by RECIST ([16]; end of Cycle 1): 22%
- number of patients still on study after a year [17]: 2
